Results as given in PubChem BioAssay (NCI).
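Cultured in 96-well plates, cells were exposed to test compound for 48 hours across five concentrations. TGI denotes the concentration required for complete inhibition of growth.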

Tested on: M19-MEL melanoma
Assay: NCI tumour cell line growth inhibition, 48 h

| Compound | TGI [µM] |
| --- | --- |
| CCCc1nc(N)nc(C(=O)Nc2cccc(C(F)(F)F)c2)c1CC | > 100 |
| O=C1c2ccccc2-c2ccccc2C(=O)C1(Br)Br | 22.3 |
| O=C1C(Cl)C(c2cc(Br)cc(Br)c2O)N1n1cnc2ccccc2c1=O (configuration not stated) | 62.2 |
| COc1nc(NC2OC(COC(C)=O)C(OC(C)=O)C(OC(C)=O)C2OC(C)=O)c2c(OC(C)=O)c(C)c(=O)oc2n1 (configuration not stated) | > 100 |

Tested on: NCI-H23 lung
Assay: NCI tumour cell line growth inhibition, 48 h

| Compound | TGI [µM] |
| --- | --- |
| CCCc1nc(N)nc(C(=O)Nc2cccc(C(F)(F)F)c2)c1CC | > 100 |
| O=C1c2ccccc2-c2ccccc2C(=O)C1(Br)Br | 26.4 |
| O=C1C(Cl)C(c2cc(Br)cc(Br)c2O)N1n1cnc2ccccc2c1=O (configuration not stated) | 86.3 |
| COc1nc(NC2OC(COC(C)=O)C(OC(C)=O)C(OC(C)=O)C2OC(C)=O)c2c(OC(C)=O)c(C)c(=O)oc2n1 (configuration not stated) | > 100 |
| CC1(C)OC(=O)C(c2cccs2)C(=O)O1 | > 100 |

Tested on: HOP-92 NSCLC
Assay: NCI tumour cell line growth inhibition, 48 h

| Compound | TGI [µM] |
| --- | --- |
| CCCc1nc(N)nc(C(=O)Nc2cccc(C(F)(F)F)c2)c1CC | > 100 |
| O=C1c2ccccc2-c2ccccc2C(=O)C1(Br)Br | 9.59 |
| COc1nc(NC2OC(COC(C)=O)C(OC(C)=O)C(OC(C)=O)C2OC(C)=O)c2c(OC(C)=O)c(C)c(=O)oc2n1 (configuration not stated) | > 100 |
| CC1(C)OC(=O)C(c2cccs2)C(=O)O1 | > 100 |

Tested on: LXFL 529 NSCLC
Assay: NCI tumour cell line growth inhibition, 48 h

| Compound | TGI [µM] |
| --- | --- |
| O=C1c2ccccc2-c2ccccc2C(=O)C1(Br)Br | 21.1 |
| O=C1C(Cl)C(c2cc(Br)cc(Br)c2O)N1n1cnc2ccccc2c1=O (configuration not stated) | > 100 |
| COc1nc(NC2OC(COC(C)=O)C(OC(C)=O)C(OC(C)=O)C2OC(C)=O)c2c(OC(C)=O)c(C)c(=O)oc2n1 (configuration not stated) | > 100 |
| CC1(C)OC(=O)C(c2cccs2)C(=O)O1 | > 100 |

Tested on: KM20L2 colon
Assay: NCI tumour cell line growth inhibition, 48 h

| Compound | TGI [µM] |
| --- | --- |
| CCCc1nc(N)nc(C(=O)Nc2cccc(C(F)(F)F)c2)c1CC | > 100 |
| O=C1c2ccccc2-c2ccccc2C(=O)C1(Br)Br | 31.8 |
| O=C1C(Cl)C(c2cc(Br)cc(Br)c2O)N1n1cnc2ccccc2c1=O (configuration not stated) | > 100 |
| COc1nc(NC2OC(COC(C)=O)C(OC(C)=O)C(OC(C)=O)C2OC(C)=O)c2c(OC(C)=O)c(C)c(=O)oc2n1 (configuration not stated) | > 100 |
| CC1(C)OC(=O)C(c2cccs2)C(=O)O1 | > 100 |

Tested on: ACHN renal
Assay: NCI tumour cell line growth inhibition, 48 h

| Compound | TGI [µM] |
| --- | --- |
| CCCc1nc(N)nc(C(=O)Nc2cccc(C(F)(F)F)c2)c1CC | > 100 |
| O=C1c2ccccc2-c2ccccc2C(=O)C1(Br)Br | 24.6 |
| O=C1C(Cl)C(c2cc(Br)cc(Br)c2O)N1n1cnc2ccccc2c1=O (configuration not stated) | > 100 |
| COc1nc(NC2OC(COC(C)=O)C(OC(C)=O)C(OC(C)=O)C2OC(C)=O)c2c(OC(C)=O)c(C)c(=O)oc2n1 (configuration not stated) | 3.16 |
| CC1(C)OC(=O)C(c2cccs2)C(=O)O1 | > 100 |

Tested on: HOP-18 NSCLC
Assay: NCI tumour cell line growth inhibition, 48 h

| Compound | TGI [µM] |
| --- | --- |
| CCCc1nc(N)nc(C(=O)Nc2cccc(C(F)(F)F)c2)c1CC | > 100 |
| O=C1c2ccccc2-c2ccccc2C(=O)C1(Br)Br | 26.2 |
| O=C1C(Cl)C(c2cc(Br)cc(Br)c2O)N1n1cnc2ccccc2c1=O (configuration not stated) | 83.8 |
| COc1nc(NC2OC(COC(C)=O)C(OC(C)=O)C(OC(C)=O)C2OC(C)=O)c2c(OC(C)=O)c(C)c(=O)oc2n1 (configuration not stated) | > 100 |
| CC1(C)OC(=O)C(c2cccs2)C(=O)O1 | > 100 |

Tested on: SF-268 CNS
Assay: NCI tumour cell line growth inhibition, 48 h

| Compound | TGI [µM] |
| --- | --- |
| CCCc1nc(N)nc(C(=O)Nc2cccc(C(F)(F)F)c2)c1CC | > 100 |
| O=C1c2ccccc2-c2ccccc2C(=O)C1(Br)Br | 28.5 |
| O=C1C(Cl)C(c2cc(Br)cc(Br)c2O)N1n1cnc2ccccc2c1=O (configuration not stated) | > 100 |
| CC1(C)OC(=O)C(c2cccs2)C(=O)O1 | > 100 |

Tested on: A498 renal
Assay: NCI tumour cell line growth inhibition, 48 h

| Compound | TGI [µM] |
| --- | --- |
| CCCc1nc(N)nc(C(=O)Nc2cccc(C(F)(F)F)c2)c1CC | > 100 |
| O=C1c2ccccc2-c2ccccc2C(=O)C1(Br)Br | 30.2 |
| COc1nc(NC2OC(COC(C)=O)C(OC(C)=O)C(OC(C)=O)C2OC(C)=O)c2c(OC(C)=O)c(C)c(=O)oc2n1 (configuration not stated) | 3.18 |

Tested on: IGROV1 ovarian
Assay: NCI tumour cell line growth inhibition, 48 h

| Compound | TGI [µM] |
| --- | --- |
| CCCc1nc(N)nc(C(=O)Nc2cccc(C(F)(F)F)c2)c1CC | > 100 |
| O=C1c2ccccc2-c2ccccc2C(=O)C1(Br)Br | 27.2 |
| O=C1C(Cl)C(c2cc(Br)cc(Br)c2O)N1n1cnc2ccccc2c1=O (configuration not stated) | 70.7 |
| COc1nc(NC2OC(COC(C)=O)C(OC(C)=O)C(OC(C)=O)C2OC(C)=O)c2c(OC(C)=O)c(C)c(=O)oc2n1 (configuration not stated) | > 100 |

Tested on: NCI-H226 lung
Assay: NCI tumour cell line growth inhibition, 48 h

| Compound | TGI [µM] |
| --- | --- |
| CCCc1nc(N)nc(C(=O)Nc2cccc(C(F)(F)F)c2)c1CC | > 100 |
| O=C1c2ccccc2-c2ccccc2C(=O)C1(Br)Br | 31.7 |
| O=C1C(Cl)C(c2cc(Br)cc(Br)c2O)N1n1cnc2ccccc2c1=O (configuration not stated) | 61.8 |
| COc1nc(NC2OC(COC(C)=O)C(OC(C)=O)C(OC(C)=O)C2OC(C)=O)c2c(OC(C)=O)c(C)c(=O)oc2n1 (configuration not stated) | > 100 |
| CC1(C)OC(=O)C(c2cccs2)C(=O)O1 | > 100 |

Tested on: UO-31 renal
Assay: NCI tumour cell line growth inhibition, 48 h

| Compound | TGI [µM] |
| --- | --- |
| CCCc1nc(N)nc(C(=O)Nc2cccc(C(F)(F)F)c2)c1CC | > 100 |
| O=C1c2ccccc2-c2ccccc2C(=O)C1(Br)Br | 27.5 |
| O=C1C(Cl)C(c2cc(Br)cc(Br)c2O)N1n1cnc2ccccc2c1=O (configuration not stated) | 76.1 |
| COc1nc(NC2OC(COC(C)=O)C(OC(C)=O)C(OC(C)=O)C2OC(C)=O)c2c(OC(C)=O)c(C)c(=O)oc2n1 (configuration not stated) | > 100 |
| CC1(C)OC(=O)C(c2cccs2)C(=O)O1 | > 100 |

Tested on: SW-620 colon
Assay: NCI tumour cell line growth inhibition, 48 h

| Compound | TGI [µM] |
| --- | --- |
| CCCc1nc(N)nc(C(=O)Nc2cccc(C(F)(F)F)c2)c1CC | > 100 |
| O=C1c2ccccc2-c2ccccc2C(=O)C1(Br)Br | 13 |
| O=C1C(Cl)C(c2cc(Br)cc(Br)c2O)N1n1cnc2ccccc2c1=O (configuration not stated) | > 100 |
| COc1nc(NC2OC(COC(C)=O)C(OC(C)=O)C(OC(C)=O)C2OC(C)=O)c2c(OC(C)=O)c(C)c(=O)oc2n1 (configuration not stated) | > 100 |
| CC1(C)OC(=O)C(c2cccs2)C(=O)O1 | > 100 |

Tested on: M14 melanoma
Assay: NCI tumour cell line growth inhibition, 48 h

| Compound | TGI [µM] |
| --- | --- |
| CCCc1nc(N)nc(C(=O)Nc2cccc(C(F)(F)F)c2)c1CC | > 100 |
| O=C1c2ccccc2-c2ccccc2C(=O)C1(Br)Br | 17.9 |
| O=C1C(Cl)C(c2cc(Br)cc(Br)c2O)N1n1cnc2ccccc2c1=O (configuration not stated) | 42.2 |
| COc1nc(NC2OC(COC(C)=O)C(OC(C)=O)C(OC(C)=O)C2OC(C)=O)c2c(OC(C)=O)c(C)c(=O)oc2n1 (configuration not stated) | > 100 |
| CC1(C)OC(=O)C(c2cccs2)C(=O)O1 | > 100 |

Tested on: KM12 colon
Assay: NCI tumour cell line growth inhibition, 48 h

| Compound | TGI [µM] |
| --- | --- |
| CCCc1nc(N)nc(C(=O)Nc2cccc(C(F)(F)F)c2)c1CC | > 100 |
| O=C1c2ccccc2-c2ccccc2C(=O)C1(Br)Br | 31.5 |
| O=C1C(Cl)C(c2cc(Br)cc(Br)c2O)N1n1cnc2ccccc2c1=O (configuration not stated) | 92.5 |
| COc1nc(NC2OC(COC(C)=O)C(OC(C)=O)C(OC(C)=O)C2OC(C)=O)c2c(OC(C)=O)c(C)c(=O)oc2n1 (configuration not stated) | > 100 |
